IC50 data for 31 compounds are collected here from patent US10752624B2, “Kinase inhibitors” (Origenis GmbH, priority 2012, dated 2020).

One experiment deals with T1, SYK kinase (Homo sapiens, UniProt P43405).
T1 construct: purchased Invitrogen, Carlsbad
The experiment in a line: SYK Assay (OMNIA Kinase Assay, SOX peptide fluorescence). Conditions: 1 mM ATP, 10 μM Omnia Peptide Substrate Tyr 7, 30° C., readings for 30 minutes; read-out: SYK Activities: IC50. In kind it is biochemical. On the procedure:
In the assay OMNIA® KINASE ASSAY by Invitrogen Corporation (Carlsbad) the effect of invention of a compound on the phosphorylation is determined by measurement of fluorescence intensity of a chelation-enhanced fluorophore called SOX. Upon phosphorylation of the peptide by the kinase of interest, Mg2+ is chelated to form a bridge between the SOX moiety and the phosphate group that is transferred to the specific tyrosine on the peptide. The fluorescence intensity is directly proportional to the amount of peptide phosphorylation.
To the wells of an 384 well small volume plate (Greiner, Frickenhausen) are added (i) the compound under test in 5% DMSO/distilled water (2 μl), (ii) 16 μl of the master mix containing ATP, DTT, Kinase Reaction Buffer, Omina Peptide Substrate Tyr 7 resulting in a final concentration of 1 mM ATP, 0.2 mM DTT and 10 μM Peptide Substrate.
The Master Mix and the assay plate was incubated to reaction temperature before the measurement (30° C.). The reaction was started with addition of (iii) 2 μl 4 μg/ml SYK kinase (Invitrogen, Carlsbad). During measurement fluorescence intensity readings were collected using a TECAN M1000 at a wavelength of λex 360/λem 485 nm every 30 s for 30 minutes. The reaction velocity was plotted versus the inhibitor concentration to determine the IC50 using XLFit 5.0 (IDBS, Guildford) to fit to a sigmoidal dose response curve.

The next experiment addresses LRRK2 (Homo sapiens, UniProt Q5S007). The experiment in a line: LRRK2-LRRK2 G2019S-Assay (LanthaScreen Eu Kinase Binding Assay). Conditions: 5 nM LRRK2, 10 nM tracer 236, 2 nM EU-Anti-GST antibody, 1 h at RT; read-out: LRRK2 Activities: IC50. In outline:
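In a TR-FRET tracer displacement assay, LRRK2 or its mutants at 5 nM were mixed with 2 nM Eu-anti-GST antibody and 10 nM tracer 236 in kinase buffer A for 1 h at RT. The 665/615 nm emission ratio was plotted against inhibitor concentration, and IC50 came from a variable-slope sigmoidal fit.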
A general note: Time-resolved FRET reads energy transfer from a long-lived donor to a nearby acceptor.

Structures are written as SMILES.

The term IC50 denotes the midpoint of a concentration-inhibition curve.

Chain of LRRK2 (Q5S007 970-2527 limits assumed): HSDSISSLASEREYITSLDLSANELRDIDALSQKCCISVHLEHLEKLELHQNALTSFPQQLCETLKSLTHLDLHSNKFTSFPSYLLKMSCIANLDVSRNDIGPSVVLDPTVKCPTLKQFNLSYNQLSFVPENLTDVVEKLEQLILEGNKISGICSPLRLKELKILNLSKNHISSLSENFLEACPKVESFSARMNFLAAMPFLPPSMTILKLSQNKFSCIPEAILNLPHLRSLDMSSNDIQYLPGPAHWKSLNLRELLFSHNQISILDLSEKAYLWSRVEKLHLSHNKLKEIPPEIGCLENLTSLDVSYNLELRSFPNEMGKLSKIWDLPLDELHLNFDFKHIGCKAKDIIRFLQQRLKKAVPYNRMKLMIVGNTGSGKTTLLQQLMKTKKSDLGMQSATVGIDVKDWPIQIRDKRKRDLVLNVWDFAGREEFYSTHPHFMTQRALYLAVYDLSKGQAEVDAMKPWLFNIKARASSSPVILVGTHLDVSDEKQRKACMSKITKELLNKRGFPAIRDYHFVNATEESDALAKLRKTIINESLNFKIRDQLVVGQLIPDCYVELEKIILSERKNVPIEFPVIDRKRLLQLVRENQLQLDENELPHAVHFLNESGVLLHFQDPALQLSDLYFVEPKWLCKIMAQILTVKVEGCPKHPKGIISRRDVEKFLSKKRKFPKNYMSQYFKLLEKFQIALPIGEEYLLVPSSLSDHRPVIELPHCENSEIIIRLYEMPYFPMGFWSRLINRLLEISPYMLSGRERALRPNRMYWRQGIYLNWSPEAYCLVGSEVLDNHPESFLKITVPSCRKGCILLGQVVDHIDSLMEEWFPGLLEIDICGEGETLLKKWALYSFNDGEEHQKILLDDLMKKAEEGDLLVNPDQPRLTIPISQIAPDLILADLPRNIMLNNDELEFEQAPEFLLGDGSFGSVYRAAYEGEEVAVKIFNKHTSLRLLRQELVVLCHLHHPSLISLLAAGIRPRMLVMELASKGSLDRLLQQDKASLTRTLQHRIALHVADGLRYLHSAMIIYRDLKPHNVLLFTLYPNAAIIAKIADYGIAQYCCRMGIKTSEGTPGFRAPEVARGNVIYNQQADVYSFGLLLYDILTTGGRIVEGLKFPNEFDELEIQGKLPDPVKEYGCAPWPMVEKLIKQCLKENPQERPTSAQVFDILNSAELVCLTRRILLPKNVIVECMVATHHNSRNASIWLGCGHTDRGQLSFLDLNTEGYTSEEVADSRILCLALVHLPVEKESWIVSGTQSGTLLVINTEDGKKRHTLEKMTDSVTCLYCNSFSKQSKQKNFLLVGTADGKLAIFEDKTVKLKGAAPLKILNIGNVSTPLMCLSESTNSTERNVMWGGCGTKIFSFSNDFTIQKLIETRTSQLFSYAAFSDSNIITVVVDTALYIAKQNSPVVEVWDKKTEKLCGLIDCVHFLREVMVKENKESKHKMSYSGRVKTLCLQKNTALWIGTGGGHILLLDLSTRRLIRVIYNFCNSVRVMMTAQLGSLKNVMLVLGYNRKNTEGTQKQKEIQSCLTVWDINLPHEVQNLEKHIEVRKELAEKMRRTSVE

Turning to `COc1ccc2nc(Nc3cnn(CC(C)C)c3)c3[nH]ncc3c2c1` [Example 285, N-(1-isobutyl-1H-pyrazol-4-yl)-8-methoxy-3H-pyrazolo[3,4-c]quinolin-4-amine], the IC50 at SYK kinase was in the range of 100 to 1000 nM; at LRRK2 it was 10 to 100 nM.
For the compound `CC(=O)Nc1cccc(Nc2nc3ccc(S(C)(=O)=O)cc3c3c[nH]nc23)c1` [Example 331, N-(3-((8-(methylsulfonyl)-2H-pyrazolo[3,4-c]quinolin-4-yl)amino)phenyl)acetamide], the IC50 on SYK kinase was in the range of 100 to 1000 nM; on LRRK2, 10 to 100 nM.
On the same counts, the results for `COc1cccc2nc(Nc3ccc(N4CCC(N5CCN(C)CC5)CC4)cc3)c3[nH]ncc3c12` [Example 21, 9-methoxy-N-(4-(4-(4-methylpiperazin-1-yl)piperidin-1-yl)phenyl)-3H-pyrazolo[3,4-c]quinolin-4-amine] are 100 to 1000 nM and 10 to 100 nM.
Turning to `CS(=O)(=O)c1cccc2nc(Nc3ccc4c(c3)NC(=O)CCC4)c3[nH]ncc3c12` [Example 98, 8-((9-(methylsulfonyl)-3H-pyrazolo[3,4-c]quinolin-4-yl)amino)-4,5-dihydro-1H-benzo[b]azepin-2(3H)-one], the half-inhibitory concentration (IC50) on SYK kinase fell in the range of 100 to 1000 nM; on LRRK2 it was 10 to 100 nM.
In the case of `CSc1ccc2nc(Nc3ccc(N4CCN(C(C)=O)CC4)cc3)c3[nH]ncc3c2c1` [Example 46, 1-(4-(4-((8-(methylthio)-3H-pyrazolo[3,4-c]quinolin-4-yl)amino)phenyl)piperazin-1-yl)ethan-1-one], the concentration for half-maximal inhibition (IC50) was in the range of 100 to 1000 nM at SYK kinase and 10 to 100 nM at LRRK2.
As for `COc1ccc2nc(Nc3cnn(C4CCNC4)c3)c3n[nH]cc3c2c1` (centres unmarked) [Example 312, 8-methoxy-N-(1-(pyrrolidin-3-yl)-1H-pyrazol-4-yl)-2H-pyrazolo[3,4-c]quinolin-4-amine], the half-inhibitory concentration (IC50) is under 10 nM on SYK kinase and 10 to 100 nM at LRRK2.
For the compound `CC(=O)N1CCN(c2ccc(Nc3nc4ccc(S(C)(=O)=O)cc4c4cn[nH]c34)cc2)CC1` [Example 62, 1-(4-(4-((8-(methylsulfonyl)-3H-pyrazolo[3,4-c]quinolin-4-yl)amino)phenyl)piperazin-1-yl)ethan-1-one], the figures for the IC50 at SYK kinase and at LRRK2 were under 10 nM and 10 to 100 nM, respectively.
Regarding `CN1CCC(n2cc(Nc3nc4ccc(S(C)(=O)=O)cc4c4cn[nH]c34)cn2)CC1` [Example 114, N-(1-(1-methylpiperidin-4-yl)-1H-pyrazol-4-yl)-8-(methylsulfonyl)-3H-pyrazolo[3,4-c]quinolin-4-amine], the IC50 at SYK kinase was under 10 nM.
As to `Brc1cccc2c1nc(Nc1cnn(C3CCOCC3)c1)c1[nH]ncc12` [Example 355, 6-bromo-N-(1-(tetrahydro-2H-pyran-4-yl)-1H-pyrazol-4-yl)-3H-pyrazolo[3,4-c]quinolin-4-amine], the IC50 on SYK kinase fell in the range of 10 to 100 nM.
The same measure, in the same setting: to `CS(=O)(=O)c1ccc2nc(Nc3ccc(N4CCOCC4)c(C#N)c3)c3n[nH]cc3c2c1` [Example 354, 5-((8-(methylsulfonyl)-2H-pyrazolo[3,4-c]quinolin-4-yl)amino)-2-morpholinobenzonitrile] belongs 10 to 100 nM; to `COc1ccc2nc(Nc3cnn(C4CCN(C)CC4)c3)c3n[nH]cc3c2c1` [Example 151, 8-methoxy-N-(1-(1-methylpiperidin-4-yl)-1H-pyrazol-4-yl)-2H-pyrazolo[3,4-c]quinolin-4-amine], 10 to 100 nM.
Regarding `COc1ccc2nc(Nc3cnn(C4CCN(C(C)=O)CC4)c3)c3n[nH]cc3c2c1` [Example 152, 1-(4-(4-((8-methoxy-2H-pyrazolo[3,4-c]quinolin-4-yl)amino)-1H-pyrazol-1-yl)piperidin-1-yl)ethan-1-one], the concentration for half-maximal inhibition (IC50) at SYK kinase was 10 to 100 nM.
Same read-out and setting: to `Cc1c(Nc2nc3ccc(S(C)(=O)=O)cc3c3cn[nH]c23)cnn1C(C)C` [Example 218, N-(1-isopropyl-5-methyl-1H-pyrazol-4-yl)-8-(methylsulfonyl)-3H-pyrazolo[3,4-c]quinolin-4-amine] belongs 100 to 1000 nM; to `COCCn1cc(Nc2nc3cccc(OC)c3c3c[nH]nc23)cn1` [Example 116, 9-methoxy-N-(1-(2-methoxyethyl)-1H-pyrazol-4-yl)-2H-pyrazolo[3,4-c]quinolin-4-amine], 100 to 1000 nM.
`COc1cc(OC)c2nc(Nc3cnn(C(C)C)c3)c3[nH]ncc3c2c1` [Example 294, N-(1-isopropyl-1H-pyrazol-4-yl)-6,8-dimethoxy-3H-pyrazolo[3,4-c]quinolin-4-amine]: the IC50 on SYK kinase lay within 100 to 1000 nM.
On the same count and under the same terms, next, `COc1cccc2nc(Nc3cnn(C4CCOCC4)c3)c3[nH]ncc3c12` [Example 102, 9-methoxy-N-(1-(tetrahydro-2H-pyran-4-yl)-1H-pyrazol-4-yl)-3H-pyrazolo[3,4-c]quinolin-4-amine]: 100 to 1000 nM; `O=C1CCc2ccc(Nc3nc4c(F)cccc4c4cn[nH]c34)cc2N1` [Example 54, 7-((6-fluoro-3H-pyrazolo[3,4-c]quinolin-4-yl)amino)-3,4-dihydroquinolin-2(1H)-one]: 100 to 1000 nM.
Consider `COc1cccc2nc(Nc3cnn(C4CCN(C(C)=O)CC4)c3)c3[nH]ncc3c12` [Example 117, 1-(4-(4-((9-methoxy-3H-pyrazolo[3,4-c]quinolin-4-yl)amino)-1H-pyrazol-1-yl)piperidin-1-yl)ethan-1-one], for which, at SYK kinase, the IC50 is 100 to 1000 nM.
Take `COc1cc(OC)c2nc(Nc3cnn(C4CCN(C(C)(C)C)CC4)c3)c3[nH]ncc3c2c1` [Example 295, N-(1-(1-(tert-butyl)piperidin-4-yl)-1H-pyrazol-4-yl)-6,8-dimethoxy-3H-pyrazolo[3,4-c]quinolin-4-amine]: the IC50 at SYK kinase fell in the range of 10 to 100 nM.
On to `COCCn1cc(Nc2nc3ccc(S(C)(=O)=O)cc3c3cn[nH]c23)c(C#N)n1` [Example 248, 1-(2-methoxyethyl)-4-((8-(methylsulfonyl)-3H-pyrazolo[3,4-c]quinolin-4-yl)amino)-1H-pyrazole-3-carbonitrile], for which the IC50 at SYK kinase lay within 100 to 1000 nM.
For `COc1ccc2nc(Nc3cnn(CCF)c3)c3[nH]ncc3c2c1` [Example 291, N-(1-(2-fluoroethyl)-1H-pyrazol-4-yl)-8-methoxy-3H-pyrazolo[3,4-c]quinolin-4-amine], the half-inhibitory concentration (IC50) at SYK kinase was 100 to 1000 nM.
Regarding `COc1ccc2nc(Nc3ccc(-c4cnco4)cc3)c3n[nH]cc3c2c1` [Example 37, 8-methoxy-N-(4-(oxazol-5-yl)phenyl)-2H-pyrazolo[3,4-c]quinolin-4-amine], the IC50 on LRRK2 was under 10 nM.
As for `CS(=O)(=O)c1ccc2nc(Nc3cnn(-c4ccccn4)c3)c3n[nH]cc3c2c1` [Example 341, 8-(methylsulfonyl)-N-(1-(pyridin-2-yl)-1H-pyrazol-4-yl)-2H-pyrazolo[3,4-c]quinolin-4-amine], the IC50 on SYK kinase lay within 100 to 1000 nM.
`Cc1nn(CCF)cc1Nc1nc2ccc(S(C)(=O)=O)cc2c2cn[nH]c12` [Example 269, N-(1-(2-fluoroethyl)-3-methyl-1H-pyrazol-4-yl)-8-(methylsulfonyl)-3H-pyrazolo[3,4-c]quinolin-4-amine]: the half-inhibitory concentration (IC50) on LRRK2 is under 10 nM.
As for `COCCn1cc(Nc2nc3ccc(S(C)(=O)=O)cc3c3cn[nH]c23)cn1` [Example 153, N-(1-(2-methoxyethyl)-H-pyrazol-4-yl)-8-(methylsulfonyl)-3H-pyrazolo[3,4-c]quinolin-4-amine], on SYK kinase, the half-inhibitory concentration (IC50) is 10 to 100 nM.
Regarding `COc1cccc2nc(Nc3ccc(C(=O)N4CCN(C)CC4)cc3)c3[nH]ncc3c12` [Example 69, (4-((9-methoxy-3H-pyrazolo[3,4-c]quinolin-4-yl)amino)phenyl)(4-methylpiperazin-1-yl)methanone], the concentration for half-maximal inhibition (IC50) at LRRK2 was in the range of 10 to 100 nM.
The same measure, in the same setting: to `CCN1C(=O)COc2ccc(Nc3nc4ccc(OC)cc4c4c[nH]nc34)cc21` [Example 318, 4-ethyl-6-((8-methoxy-2H-pyrazolo[3,4-c]quinolin-4-yl)amino)-2H-benzo[b][1,4]oxazin-3(4H)-one] belongs 100 to 1000 nM.
In the case of `CC(=O)N1CCC(n2cc(Nc3nc4ccc(S(C)(=O)=O)cc4c4cn[nH]c34)cn2)CC1` [Example 115, 1-(4-(4-((8-(methylsulfonyl)-3H-pyrazolo[3,4-c]quinolin-4-yl)amino)-1H-pyrazol-1-yl)piperidin-1-yl)ethan-1-one], the IC50 on SYK kinase is under 10 nM.
Consider `COc1cccc2nc(Nc3cnn(C4(C#N)CCCCC4)c3)c3[nH]ncc3c12` [Example 185, 1-(4-((9-methoxy-3H-pyrazolo[3,4-c]quinolin-4-yl)amino)-1H-pyrazol-1-yl)cyclohexanecarbonitrile], for which the IC50 at LRRK2 is under 10 nM.
As for `Cc1c(Nc2nc3ccc(S(C)(=O)=O)cc3c3cn[nH]c23)cnn1C1CCOCC1` [Example 281, N-(5-methyl-1-(tetrahydro-2H-pyran-4-yl)-1H-pyrazol-4-yl)-8-(methylsulfonyl)-3H-pyrazolo[3,4-c]quinolin-4-amine], the half-maximal inhibitory concentration (IC50) at LRRK2 was in the range of 10 to 100 nM.
Consider `COc1cccc2nc(Nc3ccc(C(=O)N4CCOCC4)cc3)c3[nH]ncc3c12` [Example 14, (4-((9-methoxy-3H-pyrazolo[3,4-c]quinolin-4-yl)amino)phenyl)(morpholino)methanone], for which the IC50 at LRRK2 was 10 to 100 nM.
